Key:
[1] = molecular target: T1, 5-HT1A receptor (Homo sapiens, UniProt P08908); experiment: 5-HT1A receptor cAMP agonist test; format: cell-based; settings: HEK293 cell strain stably expressing 5-HT1A receptor
T1 construct: expressed in transfected cells
T1 sequence (P08908 1-422): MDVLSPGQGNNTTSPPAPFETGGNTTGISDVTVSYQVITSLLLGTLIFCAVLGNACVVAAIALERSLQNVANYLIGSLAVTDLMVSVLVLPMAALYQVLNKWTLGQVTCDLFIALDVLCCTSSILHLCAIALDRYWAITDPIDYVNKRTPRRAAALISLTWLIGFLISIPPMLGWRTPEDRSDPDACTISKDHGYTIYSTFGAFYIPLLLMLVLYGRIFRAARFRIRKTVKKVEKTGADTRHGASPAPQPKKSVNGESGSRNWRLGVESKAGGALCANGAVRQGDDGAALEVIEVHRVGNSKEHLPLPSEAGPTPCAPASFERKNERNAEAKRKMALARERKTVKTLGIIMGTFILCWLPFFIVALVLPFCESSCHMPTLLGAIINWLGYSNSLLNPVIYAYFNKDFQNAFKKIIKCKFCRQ

[2] = molecular target: T2, D2S receptor (Homo sapiens, UniProt P14416); experiment: D2S receptor cAMP agonist test; format: cell-based; settings: HEK293 cell strain stably expressing D2S receptor
T2 construct: expressed in transfected cells
T2 sequence (P14416 1-414 isoform P14416-2): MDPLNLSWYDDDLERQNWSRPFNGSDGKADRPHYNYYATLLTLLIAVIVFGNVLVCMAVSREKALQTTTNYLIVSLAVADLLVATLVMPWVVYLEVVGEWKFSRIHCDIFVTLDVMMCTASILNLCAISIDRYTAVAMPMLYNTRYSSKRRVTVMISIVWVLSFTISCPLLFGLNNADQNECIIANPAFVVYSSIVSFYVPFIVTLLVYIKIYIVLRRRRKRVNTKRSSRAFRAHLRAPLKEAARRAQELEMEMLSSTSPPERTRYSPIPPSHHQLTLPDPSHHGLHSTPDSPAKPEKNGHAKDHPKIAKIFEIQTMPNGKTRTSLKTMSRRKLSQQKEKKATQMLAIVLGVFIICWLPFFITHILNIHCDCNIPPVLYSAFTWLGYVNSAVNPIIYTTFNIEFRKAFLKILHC

[3] = molecular target: T3, D2L receptor (Homo sapiens, UniProt P14416); experiment: D2L receptor cAMP agonist test; format: cell-based; settings: HEK293 cell strain stably expressing D2L receptor
T3 construct: expressed in transfected cells
T3 sequence (P14416 whole entry): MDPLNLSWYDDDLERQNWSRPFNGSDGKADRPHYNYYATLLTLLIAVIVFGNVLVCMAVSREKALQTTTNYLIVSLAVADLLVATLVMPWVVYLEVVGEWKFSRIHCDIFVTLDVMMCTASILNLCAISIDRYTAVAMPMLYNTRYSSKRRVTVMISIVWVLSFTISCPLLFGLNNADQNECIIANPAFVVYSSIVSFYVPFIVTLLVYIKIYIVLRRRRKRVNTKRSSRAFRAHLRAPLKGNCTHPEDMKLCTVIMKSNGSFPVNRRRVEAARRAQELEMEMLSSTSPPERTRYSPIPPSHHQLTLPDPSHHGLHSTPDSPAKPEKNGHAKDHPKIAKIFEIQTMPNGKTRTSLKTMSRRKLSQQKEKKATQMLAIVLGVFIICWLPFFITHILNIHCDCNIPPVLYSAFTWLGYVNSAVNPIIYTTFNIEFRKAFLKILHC

[4] = Pharmacokinetic test in mice; format: in vivo; settings: male, ICR, mouse, plasma, po, 5 mg/kg, oral intragastric, single dose 5 mg/kg
Experimental: Male ICR mice were administered orally intragastrically, the plasma concentrations of the compounds of the present invention were measured in the mice, the PK parameters were calculated, and the pharmacokinetic evaluation was performed on the compounds of the present invention.
• (1) Test samples: the compounds of the examples of the present invention, self-made. • (2) Test animals: ICR mice, SPF grade, male, Xuzhou Medical University. • (3) Main test instruments:
Drug preparation: according to the weight of the weighed drug, the preparation volume was calculated. 5% of DMSO was added firstly. After the drug was fully dissolved, 95% of 20% aqueous PB-cyclodextrin solution was then added, and the mixture was mixed well for later use.
Administration route: oral intragastric administration. Frequency and duration of administration: single administration.
ICR mice were stratified according to body weight and then randomly divided into groups of 9 mice each, and the mice were fasted overnight prior to the test. The mice were separately administered orally intragastrically. 50 μL of blood was collected from the fundus vein of the mouse at 0 h, 0.083 h, 0.25 h, 0.5 h, 1 h, 2 h, 4 h, 8 h, 12 h, and 24 h (3 time points for each mouse) to a sample tube containing heparin sodium as an anticoagulant, and the tube was placed in wet ice and centrifuged at 4000 r·min^−1 for 10 min. The plasma was separated, and cryopreserved in a refrigerator at −80° C. for testing.
The concentrations of plasma samples were measured by high performance liquid chromatography-tandem mass spectrometry (LC-MS/MS). The retention times of the compounds and internal standard, chromatogram acquisitions, and integrals of chromatograms were processed using the software Analyst (AB SCIEX), and the data statistics were processed using the software Watson LIMS (Thermo Fisher Scientific) or Analyst (AB SCIEX). The concentration of plasma was processed using a non-compartmental model of the pharmacokinetic software WinNonlin™ Version 6.3 (Pharsight, Mountain View, CA), and pharmacokinetic parameters were calculated by a linear log-trapezoidal method.

In the case of `O=C1Nc2cc(OCCCCN3CCN(c4cccc(Cl)c4Cl)CC3)ccc2C2CC12` (stereo not drawn) [Example 1, 5-(4-(4-(2,3-Dichlorophenyl)piperazin-1-yl)butoxy)-3,7b-dihydro-1H-cyclopropa[c]quinolin-2(1aH)-one], the EC50 ([1]; cAMP, forskolin 2.5×10^−7 M) is reported as 1010 nM, the “5-HT1A Max Act %” value ([1]; positive control serotonin 10^−6 M) is reported as 50.2% and the EC50 ([2]; cAMP, forskolin 5×10^−7 M) is reported as 0.97 nM. The “D2S Max Act %” value ([2]; positive control dopamine 1×10^−7 M) was 114.9%, the EC50 ([3]; cAMP, forskolin 0.5 μM) was 0.62 nM and the “D2L Max Act %” value ([3]; positive control dopamine 1 μM) was 54.4%. It also gave a half-life [4] of 10.8 h, an AUC(0-inf) ([4]; read-out: AUC(0-inf)) of 7160 ng·h/mL and a Cmax ([4]; read-out: Cmax) of 511 ng/mL.
